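Where inhibition never reached the appropriate level, the endpoint shown equals the highest concentration tested. Otherwise, values were interpolated linearly from a five-concentration, 48-hour dose response in 96-well plates. Abbreviation: GI50, concentration required for 50% inhibition of growth. At the TGI there is no net growth.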
Experiments:
Assay in all cases: DTP human tumour cell line panel, 48 h
786-0 renal = system: 786-0 renal
A498 renal = system: A498 renal
A549 NSCLC = system: A549 NSCLC
ACHN renal = system: ACHN renal
BT-549 breast = system: BT-549 breast
CAKI-1 renal = system: CAKI-1 renal
CCRF-CEM leukemia = system: CCRF-CEM leukemia
COLO 205 colon = system: COLO 205 colon
DU-145 prostate = system: DU-145 prostate
HCC-2998 colon = system: HCC-2998 colon
HCT-116 colon = system: HCT-116 colon
HCT-15 colon = system: HCT-15 colon
HL-60(TB) leukemia = system: HL-60(TB) leukemia
HOP-62 NSCLC = system: HOP-62 NSCLC
HOP-92 NSCLC = system: HOP-92 NSCLC
HS 578T breast = system: HS 578T breast
HT29 colon = system: HT29 colon
IGROV1 ovarian = system: IGROV1 ovarian
K-562 leukemia = system: K-562 leukemia
KM12 colon = system: KM12 colon
LOX IMVI melanoma = system: LOX IMVI melanoma
M14 melanoma = system: M14 melanoma
MALME-3M melanoma = system: MALME-3M melanoma
MCF7 breast = system: MCF7 breast
MDA-MB-231 breast = system: MDA-MB-231 breast
MDA-MB-435 = system: MDA-MB-435
MOLT-4 leukemia = system: MOLT-4 leukemia
NCI-H226 lung = system: NCI-H226 lung
NCI-H23 lung = system: NCI-H23 lung
NCI-H460 lung = system: NCI-H460 lung
NCI-H522 lung = system: NCI-H522 lung
NCI/ADR-RES ovarian = system: NCI/ADR-RES ovarian
OVCAR-3 ovarian = system: OVCAR-3 ovarian
OVCAR-4 ovarian = system: OVCAR-4 ovarian
OVCAR-5 ovarian = system: OVCAR-5 ovarian
OVCAR-8 ovarian = system: OVCAR-8 ovarian
PC-3 prostate = system: PC-3 prostate
RPMI-8226 leukemia = system: RPMI-8226 leukemia
RXF 393 renal = system: RXF 393 renal
SF-268 CNS = system: SF-268 CNS
SF-295 CNS = system: SF-295 CNS
SF-539 CNS = system: SF-539 CNS
SK-MEL-2 melanoma = system: SK-MEL-2 melanoma
SK-MEL-28 melanoma = system: SK-MEL-28 melanoma
SK-MEL-5 melanoma = system: SK-MEL-5 melanoma
SK-OV-3 ovarian = system: SK-OV-3 ovarian
SN12C renal = system: SN12C renal
SNB-19 CNS = system: SNB-19 CNS
SNB-75 CNS = system: SNB-75 CNS
SR leukemia = system: SR leukemia
SW-620 colon = system: SW-620 colon
T-47D breast = system: T-47D breast
TK-10 renal = system: TK-10 renal
U251 CNS = system: U251 CNS
UACC-257 melanoma = system: UACC-257 melanoma
UACC-62 melanoma = system: UACC-62 melanoma
UO-31 renal = system: UO-31 renal

Compound COc1cc(Nc2c(C#N)cnc3cc(OCCCN4CCN(C)CC4)c(OC)cc23)c(Cl)cc1Cl has a GI50 (786-0 renal) of 2.09 µM, a TGI (786-0 renal) of 9.93 µM and a GI50 (A498 renal) of 0.586 µM. The TGI (A498 renal) was 2.22 µM, the GI50 (A549 NSCLC) was 2.74 µM and the TGI (A549 NSCLC) was 13.5 µM. For the same compound, the GI50 (ACHN renal) was 0.317 µM, the TGI (ACHN renal) was 9.7 µM and the GI50 (BT-549 breast) was 6.78 µM. It also gave a TGI (BT-549 breast) of 18.3 µM, a GI50 (CAKI-1 renal) of 0.482 µM and a TGI (CAKI-1 renal) of 5.13 µM. The GI50 (CCRF-CEM leukemia) was 1.76 µM, the TGI (CCRF-CEM leukemia) was 5.74 µM and the GI50 (COLO 205 colon) was 1.6 µM. The TGI (COLO 205 colon) was 3.03 µM, the GI50 (DU-145 prostate) was 1.19 µM and the TGI (DU-145 prostate) was 14.6 µM. The GI50 (HCC-2998 colon) was 3.08 µM, the TGI (HCC-2998 colon) was 9.21 µM and the GI50 (HCT-116 colon) was 0.746 µM. It also gave a TGI (HCT-116 colon) of 4.71 µM, a GI50 (HCT-15 colon) of 1.21 µM and a TGI (HCT-15 colon) of 11.8 µM. The GI50 (HL-60(TB) leukemia) was 1.59 µM, the TGI (HL-60(TB) leukemia) was 3.63 µM and the GI50 (HOP-62 NSCLC) was 4.69 µM. It also gave a TGI (HOP-62 NSCLC) of 17.6 µM, a GI50 (HOP-92 NSCLC) of 2.08 µM and a TGI (HOP-92 NSCLC) of 10.5 µM. It also gave a GI50 (HS 578T breast) of 1.6 µM, a TGI (HS 578T breast) of 26 µM and a GI50 (HT29 colon) of 0.689 µM. It also gave a TGI (HT29 colon) of 5.38 µM, a GI50 (IGROV1 ovarian) of 0.279 µM and a TGI (IGROV1 ovarian) of 3.09 µM. For the same compound, the GI50 (K-562 leukemia) was 0.0211 µM, the TGI (K-562 leukemia) was 3.82 µM and the GI50 (KM12 colon) was 0.331 µM. It also gave a TGI (KM12 colon) of 7.24 µM, a GI50 (LOX IMVI melanoma) of 1.15 µM and a TGI (LOX IMVI melanoma) of 2.75 µM. It also gave a GI50 (M14 melanoma) of 1.3 µM, a TGI (M14 melanoma) of 3.03 µM and a GI50 (MALME-3M melanoma) of 1.83 µM. The TGI (MALME-3M melanoma) was 3.67 µM, the GI50 (MCF7 breast) was 2.79 µM and the TGI (MCF7 breast) was 17.8 µM. For the same compound, the GI50 (MDA-MB-231 breast) was 2.76 µM, the TGI (MDA-MB-231 breast) was 7.14 µM and the GI50 (MDA-MB-435) was 1.97 µM. The TGI (MDA-MB-435) was 5.36 µM, the GI50 (MOLT-4 leukemia) was 1.91 µM and the TGI (MOLT-4 leukemia) was 7.38 µM. The GI50 (NCI-H226 lung) was 12.1 µM, the TGI (NCI-H226 lung) was 34.5 µM and the GI50 (NCI-H23 lung) was 4.55 µM. For the same compound, the TGI (NCI-H23 lung) was 17.7 µM, the GI50 (NCI-H460 lung) was 3.99 µM and the TGI (NCI-H460 lung) was 17.7 µM. It also gave a GI50 (NCI-H522 lung) of 0.393 µM, a TGI (NCI-H522 lung) of 6.36 µM and a GI50 (NCI/ADR-RES ovarian) of 4.6 µM. For the same compound, the TGI (NCI/ADR-RES ovarian) was 42.9 µM, the GI50 (OVCAR-3 ovarian) was 2.78 µM and the TGI (OVCAR-3 ovarian) was 14.4 µM. It also gave a GI50 (OVCAR-4 ovarian) of 4.6 µM, a TGI (OVCAR-4 ovarian) of 21 µM and a GI50 (OVCAR-5 ovarian) of 1.19 µM. The TGI (OVCAR-5 ovarian) was 16.2 µM, the GI50 (OVCAR-8 ovarian) was 2.35 µM and the TGI (OVCAR-8 ovarian) was 14.4 µM. It also gave a GI50 (PC-3 prostate) of 5.02 µM, a TGI (PC-3 prostate) of 16.7 µM and a GI50 (RPMI-8226 leukemia) of 5.32 µM. The TGI (RPMI-8226 leukemia) was 13.9 µM, the GI50 (RXF 393 renal) was 0.85 µM and the TGI (RXF 393 renal) was 6.02 µM. For the same compound, the GI50 (SF-268 CNS) was 2.34 µM, the TGI (SF-268 CNS) was 10.3 µM and the GI50 (SF-295 CNS) was 7.55 µM. The TGI (SF-295 CNS) was 21 µM, the GI50 (SF-539 CNS) was 2.3 µM and the TGI (SF-539 CNS) was 5.83 µM. For the same compound, the GI50 (SK-MEL-2 melanoma) was 2.97 µM, the TGI (SK-MEL-2 melanoma) was 8.67 µM and the GI50 (SK-MEL-28 melanoma) was 2.13 µM. The TGI (SK-MEL-28 melanoma) was 5.08 µM, the GI50 (SK-MEL-5 melanoma) was 2.09 µM and the TGI (SK-MEL-5 melanoma) was 5.71 µM. The GI50 (SK-OV-3 ovarian) was 0.884 µM, the TGI (SK-OV-3 ovarian) was 12.3 µM and the GI50 (SN12C renal) was 0.308 µM. It also gave a TGI (SN12C renal) of 14.4 µM, a GI50 (SNB-19 CNS) of 9.26 µM and a TGI (SNB-19 CNS) of 21.1 µM. The GI50 (SNB-75 CNS) was 0.707 µM, the TGI (SNB-75 CNS) was 8.38 µM and the GI50 (SR leukemia) was 1.35 µM. It also gave a TGI (SR leukemia) of 4.51 µM, a GI50 (SW-620 colon) of 3.26 µM and a TGI (SW-620 colon) of 11.4 µM. The GI50 (T-47D breast) was 3.1 µM, the TGI (T-47D breast) was 18.2 µM and the GI50 (TK-10 renal) was 0.469 µM. For the same compound, the TGI (TK-10 renal) was 11.3 µM, the GI50 (U251 CNS) was 3.1 µM and the TGI (U251 CNS) was 8.37 µM. For the same compound, the GI50 (UACC-257 melanoma) was 1.76 µM, the TGI (UACC-257 melanoma) was 3.46 µM and the GI50 (UACC-62 melanoma) was 2.48 µM. For the same compound, the TGI (UACC-62 melanoma) was 7.01 µM, the GI50 (UO-31 renal) was 0.687 µM and the TGI (UO-31 renal) was 7.75 µM.

— PubChem BioAssay (NCI)
